Reference: US20090326003A1, “PYRAZOLO (3, 4-B) PYRIDINE DERIVATIVES AS PDE4 INHIBITORS” (priority 2006, published 2009)

Biological target: T1, PDE4B (human recombinant) (Homo sapiens, UniProt Q07343)
T1 construct: made in house
Experiment: PDE4B inhibition, fluorescence polarisation (FP) and/or SPA assay
Type: biochemical
Conditions: n=1 or average of 2 or more readings, accuracy ±about 0.5 log unit, read-out: PDE4B pIC50 (generally in FP assay) (±about 0.5) (converted)
Summary of the method: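 Human recombinant PDE4B (yeast-expressed, HSPDE4B2B variant) preincubated with compound 10-30 min at ambient temperature; SPA with ~10 nM [3H]cAMP, 1 h, Tris-HCl pH 7.5, ≤20% hydrolysis; or IMAP FP with ~40 nM fluorescein-cAMP, Tris-HCl pH 7.2. pIC50 from 10-point curves (1.5 nM-30 uM).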

T1 sequence (Q07343 1-564 isoform Q07343-2): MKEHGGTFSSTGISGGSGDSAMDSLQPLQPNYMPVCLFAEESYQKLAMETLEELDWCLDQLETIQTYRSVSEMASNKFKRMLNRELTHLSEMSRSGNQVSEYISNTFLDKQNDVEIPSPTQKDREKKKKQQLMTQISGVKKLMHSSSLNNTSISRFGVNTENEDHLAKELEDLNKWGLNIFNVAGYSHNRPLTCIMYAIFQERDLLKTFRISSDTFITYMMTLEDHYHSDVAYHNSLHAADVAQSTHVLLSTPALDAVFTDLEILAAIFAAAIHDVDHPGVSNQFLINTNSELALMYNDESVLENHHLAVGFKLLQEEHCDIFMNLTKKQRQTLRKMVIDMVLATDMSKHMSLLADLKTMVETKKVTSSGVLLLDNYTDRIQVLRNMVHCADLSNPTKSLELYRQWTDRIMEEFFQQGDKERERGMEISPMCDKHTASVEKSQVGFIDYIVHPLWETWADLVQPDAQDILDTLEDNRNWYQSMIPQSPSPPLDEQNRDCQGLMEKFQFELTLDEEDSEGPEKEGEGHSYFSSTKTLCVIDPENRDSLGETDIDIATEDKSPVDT

| Structure (SMILES) | IC50 |
| --- | --- |
| CCc1nc2c(cnn2CC)c(NC2CCOCC2)c1CNC(=O)c1ccc(-c2ccc(C(=O)NCc3c(CC)nc4c(cnn4CC)c3NC3CCOCC3)cc2)cc1 [Example 23, N,N′-bis{[1,6-diethyl-4-(tetrahydro-2H-pyran-4-ylamino)-1H-pyrazolo[3,4-b]pyridin-5-yl]methyl}-4,4′-biphenyldicarboxamide] | ~0.158 nM |
| CCn1ncc2c(NC3CCOCC3)c(CNC(=O)c3cccc(-c4cccc(C(=O)NCc5c(C)nc6c(cnn6CC)c5NC5CCOCC5)c4)c3)c(C)nc21 [Example 29, N,N′-bis{[1-ethyl-6-methyl-4-(tetrahydro-2H-pyran-4-ylamino)-1H-pyrazolo[3,4-b]pyridin-5-yl]methyl}-3,3′-biphenyldicarboxamide] | ~0.1 nM |
| CCc1nc2c(cnn2CC)c(NC2CCOCC2)c1CNC(=O)c1ccc(C(=O)NCc2c(CC)nc3c(cnn3CC)c2NC2CCOCC2)o1 [Example 35, N,N′-bis{[1,6-diethyl-4-(tetrahydro-2H-pyran-4-ylamino)-1H-pyrazolo[3,4-b]pyridin-5-yl]methyl}-2,5furandicarboxamide] | ~0.0398 nM |
